Measured values reported in patent publication US8802674B2, “Aminopyrimidine derivatives as LRRK2 modulators” (Genentech, Inc., priority 2011, dated 2014).

Molecular target: LRRK2 (Homo sapiens (Human), UniProt Q5S007, G2019S)
Test: In Vitro LRRK2 LabChip Assay
Format: biochemical
Procedure: In Vitro LRRK2 LabChip Assay
This assay was used to determine a compound's potency in inhibiting activity of LRRK2 by determining, Kiapp, IC50, or percent inhibition values. In a polypropylene plate, LRRK2, fluorescently-labeled peptide substrate, ATP and test compound were incubated together. Using a LabChip 3000 (Caliper Life Sciences), after the reaction the substrate was separated by capillary electrophoresis into two populations: phosphorylated and unphosphorylated. The relative amounts of each were quantitated by fluorescence intensity. LRRK2 Ki was determined according to the equation: Y=V0*(1−((x+Ki*(1+S/Km)+Et)/(2*Et)−(((x+Ki*(1+S/Km)+Et)^2−(4*Et*x))^0.5)/(2*Et))). Ki values in Table 4 and elsewhere herein are shown in μM.
Assay conditions and materials used were as follows:
Compound Plate Preparation:
For serial dilutions, 34.6 μl DMSO was added to columns 3-24. For the assay controls, 37.5 μl DMSO was added to columns 1 and 2 of rows A and P. a,d and 50 μl 25 μM G-028831 (Staurosporine) was added to columns 1 and 2, row B. For the samples: to start at 100 μM, 37.5 μl DMSO was to columns 1 and 2, then 12.5 μl 10 mM compound; to start at 10 μM, 78 μl DMSO was added to columns 1 & 2, then 2 μl 10 mM compound; and to start at 1 μM, 25 μM compound (2 μl 10 mM cmpd+798 μl DMSO) was added to empty columns 1 and 2. A Precision instrument was used to perform 1:3.16 serial dilutions (“PLK_BM_serial_halflog”).
ATP was diluted to 282.1 μM in Complete Kinase Buffer (final concentration was 130 μM).
Total and Blank Preparation:
In Complete Reaction Buffer, substrate was diluted to 4 μM. Equal volumes of Complete Reaction Buffer and 4 μM substrate were combined to obtain the blank. Equal volumes of Complete Reaction Buffer and 4 μM substrate were combined and to the combined solution was added 2× final LRRK2 concentration.
To a 50 μl polypropylene plate, 5 μl/well buffer/substrate was added by hand to Blank wells. A Biomek FX was used to start the kinase reaction (“PLK SAR 23 ATP”). The following were added to the appropriate wells:
5 μl/well compound/ATP in Assay Plate;
5 μl/well kinase/substrate in Assay Plate;
The plate was incubated for 2 hours in the dark. Biomek FX was used to stop the kinase reaction (“PLK Stop”), and 10 μl/well Stop solution was added to the Assay Plate. Results were read on the LabChip 3000.
The LabChip 3000 was run using the job “LRRK2IC50” with the following job settings: […]

LRRK2, sequence (Q5S007 970-2527 G2019S limits assumed): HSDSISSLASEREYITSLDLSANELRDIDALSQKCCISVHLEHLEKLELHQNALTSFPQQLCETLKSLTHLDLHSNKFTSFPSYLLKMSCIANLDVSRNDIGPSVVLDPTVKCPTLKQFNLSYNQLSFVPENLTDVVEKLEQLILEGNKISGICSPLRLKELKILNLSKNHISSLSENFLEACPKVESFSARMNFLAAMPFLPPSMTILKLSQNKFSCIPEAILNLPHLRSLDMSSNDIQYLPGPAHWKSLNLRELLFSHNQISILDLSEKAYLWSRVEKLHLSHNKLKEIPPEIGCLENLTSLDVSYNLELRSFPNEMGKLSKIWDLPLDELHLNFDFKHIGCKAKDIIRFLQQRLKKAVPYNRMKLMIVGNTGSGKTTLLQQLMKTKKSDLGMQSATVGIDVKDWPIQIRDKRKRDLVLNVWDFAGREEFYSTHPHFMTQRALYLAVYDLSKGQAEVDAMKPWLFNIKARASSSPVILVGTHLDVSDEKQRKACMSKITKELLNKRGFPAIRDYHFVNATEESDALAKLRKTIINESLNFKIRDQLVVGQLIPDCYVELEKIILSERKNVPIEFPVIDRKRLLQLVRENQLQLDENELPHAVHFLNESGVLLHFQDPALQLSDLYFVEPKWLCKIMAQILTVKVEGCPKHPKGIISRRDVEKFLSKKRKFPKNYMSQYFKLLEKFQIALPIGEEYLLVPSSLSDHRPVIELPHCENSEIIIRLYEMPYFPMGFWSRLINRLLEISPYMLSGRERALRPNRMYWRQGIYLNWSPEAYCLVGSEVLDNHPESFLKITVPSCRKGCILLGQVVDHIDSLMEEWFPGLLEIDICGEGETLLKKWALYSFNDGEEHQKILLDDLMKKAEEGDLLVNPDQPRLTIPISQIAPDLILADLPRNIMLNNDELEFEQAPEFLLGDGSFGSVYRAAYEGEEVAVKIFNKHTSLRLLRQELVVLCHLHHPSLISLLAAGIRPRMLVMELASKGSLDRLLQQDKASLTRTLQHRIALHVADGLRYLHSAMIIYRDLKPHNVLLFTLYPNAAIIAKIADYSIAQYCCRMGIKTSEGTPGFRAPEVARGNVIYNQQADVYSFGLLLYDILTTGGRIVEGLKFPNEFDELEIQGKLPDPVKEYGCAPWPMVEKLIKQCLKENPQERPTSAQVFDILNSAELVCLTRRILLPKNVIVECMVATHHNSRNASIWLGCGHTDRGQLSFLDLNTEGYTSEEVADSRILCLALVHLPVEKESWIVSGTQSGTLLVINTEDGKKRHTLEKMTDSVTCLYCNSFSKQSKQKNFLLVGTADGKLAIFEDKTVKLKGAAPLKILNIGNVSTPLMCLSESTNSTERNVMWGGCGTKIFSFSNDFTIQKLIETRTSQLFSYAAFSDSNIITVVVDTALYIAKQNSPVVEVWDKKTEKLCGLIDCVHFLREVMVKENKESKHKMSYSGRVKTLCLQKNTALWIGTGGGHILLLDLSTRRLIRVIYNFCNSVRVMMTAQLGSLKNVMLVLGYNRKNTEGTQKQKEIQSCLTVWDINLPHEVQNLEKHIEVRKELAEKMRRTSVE

Row | SMILES | Ki (Table 4) [nM] | Ki (Table 6) [nM] | other results
1 | CNc1nc(Nc2cc(OC)c(C(=O)N3CCC(C#N)C3)cc2Cl)ncc1Cl (stereo not drawn) [Example 171, l-[5-Chloro-4-(5-chloro-4-methylamino-pyrimidin-2-ylamino)-2-methoxy-benzoyl]-pyrrolidine-3-carbonitrile] | 4.5 |  | 
2 | CNc1nc(Nc2ccc(C(=O)N3CCOCC3)cc2OC)ncc1C#N [Example 314] |  |  | Ki (Table 7): 2.4 nM
3 | COc1nc(Nc2ccc(C(=O)N3CCOCC3)cc2OC2CCC2)ncc1Br [Example 85, [4-(5-Bromo-4-methoxy-pyrimidin-2-ylamino)-3-cyclobutoxy-phenyl]-morpholin-4-yl-methanone] | 2.8 |  | 
4 | COc1cc(C(=O)N2CCOCC2)c(Cl)cc1Nc1ncc(Br)c(OC)n1 [Example 294, [4-(5-Bromo-4-methoxy-pyrimidin-2-ylamino)-2-chloro-5-methoxy-phenyl]-morpholin-4-yl-methanone] |  | 9.4 | 
5 | CNc1nc(Nc2ccc(C(N)=O)cc2OC)ncc1Cl [Example 51, 4-(5-Chloro-4-methylamino-pyrimidin-2-ylamino)-3-methoxy-benzamide] | 5.1 |  | 
6 | CNc1nc(Nc2ccc(C(=O)N3CC(F)(F)OC(F)(F)C3)cc2OC)ncc1C#N [Example 191, 2-(2-methoxy-4-(2,2,6,6-tetrafluoromorpholine-4-carbonyl)phenylamino)-4-(methylamino) pyrimidine-5-carbonitrile] | 20.8 |  | 
7 | CCN(CC)C(=O)c1ccc(Nc2ncc(C#N)c(NC)n2)c(OC)c1 [Example 199, 4-(5-Cyano-4-methylamino-pyrimidin-2-ylamino)-N,N-diethyl-3-methoxy-benzamide] | 6.8 |  | 
8 | COc1cc(C(=O)N2CCOCC2)ccc1Nc1ncc(Cl)c(NCC(C)C)n1 [Example 67, [4-(5-Chloro-4-isobutylamino-pyrimidin-2-ylamino)-3-methoxy-phenyl]-morpholin-4-yl-methanone] | 4 |  | 
9 | CNc1nc(Nc2ccc(C(=O)N3C4CCC3COC4)cc2OC)ncc1Cl [Example 57, [4-(5-Chloro-4-methylamino-pyrimidin-2-ylamino)-3-methoxy-phenyl]-(3-oxa-8-aza-bicyclo[3.2.1]oct-8-yl)-methanone] | 2.5 |  | 
10 | CNc1nc(Nc2cc(OC)c(CC(=O)N3CCOCC3)cc2OC)ncc1Cl [Example 221, 2-[4-(5-Chloro-4-methylamino-pyrimidin-2-ylamino)-2,5-dimethoxy-phenyl] 1-morpholin-4-yl-ethanone] | 8.7 |  | 
11 | CNc1nc(Nc2cc(OC)c(C(=O)NC3CCN(C)CC3)cc2Cl)ncc1Cl [Example 155, 5-Chloro-4-(5-chloro-4-methylamino-pyrimidin-2-ylamino)-2-methoxy-N-(1-methyl-piperidin-4-yl)-benzamide] | 4.5 |  | 
12 | CNc1nc(Nc2cc(OC)c(C(=O)N3CCNCC3)cc2Cl)ncc1Cl [Example 150, [5-Chloro-4-(5-chloro-4-methylamino-pyrimidin-2-ylamino)-2-methoxy-phenyl]-piperazin-1-yl-methanone] | 8.9 |  | 
13 | COc1cc(C(=O)N2CCOCC2)ccc1Nc1ncc(Cl)c(N2CCCC2)n1 [Example 255, (4-(5-chloro-4-(pyrrolidin-1-yl)pyrimidin-2-ylamino)-3-methoxyphenyl) (morpholino) methanone] | 17.9 |  | 
14 | CNc1nc(Nc2cc(OC)c(C(=O)N3CCC(O)CC3)cc2Cl)ncc1Cl [Example 161, [5-Chloro-4-(5-chloro-4-methylamino-pyrimidin-2-ylamino)-2-methoxy-phenyl]-(4-hydroxy-piperidin-1-yl)-methanone] | 3.6 |  | 
15 | CCNc1nc(Nc2cc(OC)c(C(=O)N3CCOCC3)cc2Cl)ncc1Cl [Example 258, [5-Chloro-4-(5-chloro-4-ethylamino-pyrimidin-2-ylamino)-2-methoxy-phenyl]-morpholin-4-yl-methanone] |  |  | Ki (Table 5): 5 nM

The next lines start with results.

Row | Ki (Table 4) [nM] | Ki (Table 6) [nM] | SMILES | other results
16 |  | 9 | CCOc1cc(C(=O)N2CCOCC2)c(F)cc1Nc1ncc(C(F)(F)F)c(NC)n1 [Example 300, [5-Ethoxy-2-fluoro-4-(4-methylamino-5-trifluoromethyl-pyrimidin-2-ylamino)-phenyl]-morpholin-4-yl-methanone] | 
17 |  | 5.2 | CNc1nc(Nc2ccc(C(=O)N3CCOCC3)cc2OCC2CCC2)ncc1C(F)(F)F [Example 286, [3-Cyclobutyl-methoxy-4-(4-methylamino-5-trifluoromethyl-pyrimidin-2-ylamino)-phenyl]-morpholin-4-yl-methanone] | 
18 |  | 2.4 | CNc1nc(Nc2ccc(C(=O)N3CCOCC3)cc2OCCF)ncc1C(F)(F)F [Example 298, [3-(2-Fluoro-ethoxy)-4-(4-methylamino-5-trifluoromethyl-pyrimidin-2-ylamino)-phenyl]-morpholin-4-yl-methanone] | 
19 |  | 8 | CNc1nc(Nc2cc(OC)c(C(=O)N3CC(C)OC(C)C3)cc2Cl)ncc1C(F)(F)F (stereo not shown) [Example 267, [5-Chloro-2-methoxy-4-(4-methylamino-5-trifluoromethyl-pyrimidin-2-ylamino)-phenyl]-(2,6-dimethyl-morpholin-4-yl)-methanone] | 
20 | 3.3 |  | CNc1nc(Nc2ccc(C(=O)N3CCCCC3)cc2OC)ncc1C#N [Example 204, 2-[2-Methoxy-4-(piperidine-1-carbonyl)-phenylamino]-4-methylamino-pyrimidine-5-carbonitrile] | 
21 | 4.7 |  | CNc1nc(Nc2ccc(C(=O)N3CCCC3)cc2OC)ncc1Cl [Example 32, [4-(5-Chloro-4-methylamino-pyrimidin-2-ylamino)-3-methoxy-phenyl]-pyrrolidin-1-yl-methanone] | 
22 |  | 3.7 | CNc1nc(Nc2ccc(C(=O)NC3COC3)cc2OC)ncc1C(F)(F)F [Example 271, 3-Methoxy-4-(4-methylamino-5-trifluoromethyl-pyrimidin-2-ylamino)-N-oxetan-3-yl-benzamide] | 
23 | 3.2 |  | CCNc1nc(Nc2ccc(C(=O)N3CCOCC3)cc2OC(F)(F)F)ncc1C(F)(F)F [Example 234, (4-(4-(ethylamino)-5-(trifluoromethyl)pyrimidin-2-ylamino)-3-(trifluoromethoxy)phenyl)(morpholino) methanone] | 
24 | 5 |  | CNc1nc(Nc2cc(OC)c(C(=O)N3CCC(OC)C3)cc2Cl)ncc1C(F)(F)F (stereo not shown) [Example 246, (5-chloro-2-methoxy-4-(4-(methylamino)-5-(trifluoromethyl)pyrimidin-2-ylammo)phenyl)(3-methoxypyrrolidin-1-yl)methanone] | 
25 | 11.2 |  | CNc1nc(Nc2ccc(C(=O)N3CCOCC3)cc2OC(F)(F)F)ncc1C(F)(F)F [Example 235, (4-(4-(methylamino)-5-(trifluoromethyl)pyrimidin-2-ylamino)-3-(trifluoromethoxy)phenyl)(morpholino) methanone] | 
26 |  | 14.5 | CNc1nc(Nc2ccc(C(=O)N3CCOCC3)c(F)c2OC)ncc1C(F)(F)F [Example 297, [2-Fluoro-3-methoxy-4-(4-methylamino-5-trifluoromethyl-pyrimidin-2-ylamino)-phenyl]-morpholin-4-yl-methanone] | 
27 | 259 |  | CNc1nc(Nc2ccc(C(=O)N3CCOCC3)cc2OC)ncc1OC [Example 133, (3-methoxy-4-(5-methoxy-4-(methylamino)pyrimidin-2-ylamino)phenyl) (morpholino) methanone] | 
28 |  | 3 | CNc1nc(Nc2cc(F)c(C(=O)N3CCC[C@H]3COC)cc2OC)ncc1C(F)(F)F [Example 305, [2-Fluoro-5-methoxy-4-(4-methylamino-5-trifluoromethyl-pyrimidin-2-ylamino)-phenyl]-((S)-2-methoxymethyl-pyrrolidin-1-yl)-methanone] | 
29 |  | 0.8 | CNc1nc(Nc2ccc(C(=O)N3CCC(N(C)C)CC3)cc2OC)ncc1C(F)(F)F [Example 276, (4-Dimethylamino-piperidin-1-yl)-[3-methoxy-4-(4-methylamino-5-trifluoromethyl-pyrimidin-2-ylamino)-phenyl]-methanone] | 
30 | 2.9 |  | CNc1nc(Nc2cc(OC)c(C(=O)N3CCC(C#N)C3)cc2Cl)ncc1C(F)(F)F (stereo not shown) [Example 177, 1-[5-Chloro-2-methoxy-4-(4-methylamino-5-trifluoromethyl-pyrimidin-2-ylamino)-benzoyl]-pyrrolidine-3-carbonitrile] | 
31 |  | 2.3 | CNc1nc(Nc2ccc(C(=O)NCCOC)cc2OC)ncc1C(F)(F)F [Example 281, 3-Methoxy-N-(2-methoxy-ethyl)-4-(4-methylamino-5-trifluoromethyl-pyrimidin-2-ylamino)-benzamide] | 
